Assay results from paper PMC8403366, “Functional significance of gain-of-function H19 lncRNA in skeletal muscle differentiation and anti-obesity effects” (Genome Medicine, 2021).

How the values were obtained:
iPSC-SkMC = assay: Utrophin immunofluorescence in iPSC-SkMC; assay type: cell-based, human; details: vs AGR-Scr, n = 5
Method: For myogenic differentiation, iPSCs were differentiated into skeletal muscle cells using Skeletal Muscle Differentiation Kit (Genea Biocells) according to the manufacturer’s protocol. Briefly, iPSCs were plated onto a collagen I coated plate and maintained for 6–10 days in Skeletal Muscle Induction Medium (Genea Biocells) until confluent. Dissociated myogenic precursors were then plated on a collagen I coated plate and cultured in Skeletal Myoblast Medium (Genea Biocells) for 6–8 days. When confluent, cells were maintained in Myotube Medium or Myotube Fusion Medium (Genea Biocells). Cryopreserved stocks of myoblasts Genea002 were obtained from Genea Biocells. […]
Skeletal muscles were collected and fixed in 10% Neutral Buffered Formalin at 4 °C for 1 h, followed by 10% sucrose/PBS overnight and then 18% sucrose/PBS overnight at 4 °C before being frozen embedded and sectioned. […] Muscle cross-sectional area and fiber numbers were quantified by ImageJ. […] The quantification of IF staining density was performed by Image-pro plus 6.0 (Media Cybernetics) and calculated based on the average staining intensity and the percentage of positively stained cells. To quantify myotube fusion, fusion index was calculated by dividing the number of nuclei in MHC-positive myotubes with ≥ 3 nuclei by the total number of nuclei analyzed in a field.

WT C57BL/6 J mice = assay: Muscle and fat weights and body composition of treated WT mice; assay type: in vivo, mouse; details: 1 mg/kg i.p. every 3 days, 12 weeks
Method: To determine the effects of H19-Rgof with a skeletal muscle enrichment peptide agrin (AGR-H19-Rgof) on WT C57BL/6 J or Lep^Ob/Ob mice, AGR-tagged oligonucleotides were used. The synthesis and sequence information of AGR-tagged RNA oligonucleotides are described in “Synthesis of H19-Rgof mimics, AGR-H19-Rgof mimics, and Pharmacokinetics (PK) studies.” AGR-Scr (conjugated to scramble oligonucleotides), H19-Rgof, or AGR-H19-Rgof mimics were injected at a dose of 1 mg/kg intraperitoneally into 3-week-old male and female mice. For AGR-H19-Rgof treatment in HFD (Cat # D12492, Research Diets, Inc.)-fed mice, male C57BL/6 J mice were fed with a HFD starting at 6 weeks of age. The AGR-H19-Rgof and AGR-Scr mimics were injected at a dose of 0.5 or 1 mg/kg intraperitoneally every other day starting 2 weeks after the initiation of HFD feeding. Body weight was measured weekly. The general health condition, grooming, and behavior of all animals were monitored daily, and injection sites were checked for signs of redness or edema.
Unless otherwise indicated, mice were fasted for 4–6 h, anesthetized with isoflurane, and sacrificed by heart puncture. Tissues were dissected, weighed, and either dipped in liquid nitrogen or fixed for immunohistochemistry analysis. Individual muscle was dissected on one side of the body and weighed. Adipose tissues including white adipose tissue (WAT), visceral adipose tissue (VAT), and brown adipose tissue (BAT) were collected and weighed.
Whole-body composition parameters were measured in male and female mice fed with either chow or HFD by Faxitron Specimen Radiography System (Faxitron X-Ray Corp.) to precisely measure total body fat and lean mass. Mice were housed in the Oxymax/CLAMS metabolic cage system (Columbus Instruments) for 4 days with ad libitum access to food and water. Volume of oxygen uptake (VO2) and exhaled carbon dioxide (VCO2), respiratory exchange ratio (RER), and activity were measured using the Oxymax system. RER is determined by dividing VCO2 produced by VO2 consumed.

C57BL/6 J mice [1] = assay: Forelimb grip strength test; assay type: in vivo, mouse; details: vs AGR-Scr
Method: A grip strength meter (Columbus Instruments) was used to measure the forelimb grip strength as previously reported. The grid was attached to a force transducer to measure the maximum force applied by the mouse on the grid during the pull. The body weight of the mice was recorded prior to the test and the units of force were calculated in grams-of-force.

C57BL/6 J mice [2] = assay: Run-to-exhaustion and sprint treadmill tests; assay type: in vivo, mouse
Method: Exhaustion treadmill running and sprint running were used to evaluate the physiological activity of the mice. The mice were repeatedly exercised twice weekly for 2 weeks using a treadmill (Ugo Basile, 57631, Stoelting). For the animal exercise, mice were placed on the horizontal treadmill starting at 5 m/min and kept on for about 10 min. The speed was then increased to 10 m/min for the remaining 30 min. Treadmill training was […] and followed a standardized protocol. When performing the speed test, the mice were placed on a treadmill with a 15° incline. We increased the speed from 6 m/min to 26 m/min at increments of 2 m/min, which each increment lasting 2 min. Mice were considered to have reached the point of exhaustion when they made contact with the grid for a period of time greater than 5 s. The running speed of the mice was recorded and the animals were returned to their cages once exhausted. For the sprint test: the sprint regimen consisted of mice warming up for 3 min at 6 m/min on a 0° incline, followed by a 2 min run at the same speed with a 15° incline. Subsequent runs were performed at a 15° incline. Speed was first increased to 14 m/min for 30 s, followed by 1.5 min of low speed running at 6 m/min. The speed was then increased to 18 m/min for 30 s. Afterwards, we increased the speed from 18 m/min to 24 m/min at 2 m/min increments, with each increment lasting 15 s […]. After that, the mice continued interval running at 6 m/min for 3 min, followed by an increase in the speed from 20 m/min to 32 m/min at 4 m/min increments, with each increment lasting 15 s. This pattern of exercise continued with subsequent intervals running at 6 m/min for 3 min, followed by a sharp increase in speed from 22 m/min to 34 m/min at 4 […], with each increment lasting 15 s. This pattern was repeated with increasing speed until the mice could no longer keep up and gave up on the grid.

C57BL/6 J mice [3] = assay: Blood analyses (serum lipids, hormones, ALT, AST)
Method: Whole blood was collected by tail bleeding from un-anesthetized mice or cardiac puncture from mice under deep terminal anesthesia. Mice have been fasted for 4–6 h before blood collection. Total cholesterol (TC) and triglycerides (TG) were determined by enzymatic assays using commercial kits (BioAssay Systems). Alanine aminotransferase (ALT) and aspartate aminotransferase (AST) levels were measured using Alanine Transaminase Colorimetric Activity Assay Kit (700260, Cayman Chemical) and EnzyChrom Aspartate Transaminase Assay Kit (EASTR-100, BioAssay Systems). Serum levels of leptin (ELM-Leptin-1, RayBiotech), IGF1 (RAB0229, Sigma), IGF2 (RAB0231, Sigma), insulin (90080, Crystal Chem), and testosterone (KGE010, R&D) were measured by ELISA assay according to the manufacturer’s instructions.

[4] = HFD-fed mice, vs AGR-Scr, n = 5

N-terminal-ELTNEIPAELTNEIPA-Linker-5'-[2’-F-C][2’-F-U][2’-F-C][2’-F-U][2’-F-U][2’-F-U][2’-F-A][2’-F-U][2’-F-U][2’-F-U][2’-F-C][2’-F-U][2’-F-G][2’-F-A][2’-F-G][2’-F-C][2’-F-U][2’-F-U][2’-F-U][2’-F-C][2’-F-C][2’-F-U][2’-F-A][2’-F-U][2’-F-C][2’-F-U][2’-F-U][2’-F-U][2’-F-C][2’-F-C]-3' [AGR-H19-Rgof]
utrophin protein status (iPSC-SkMC): elevated
body weight (body composition analysis) (WT C57BL/6 J mice; vs AGR-Scr): increased body weight
fat percentage (body composition analysis) (WT C57BL/6 J mice; vs AGR-Scr): reduced
fat weight (body composition analysis) (WT C57BL/6 J mice; vs AGR-Scr): reduced
lean weight (body composition analysis) (WT C57BL/6 J mice; vs AGR-Scr): increased
fat weight (BAT, WAT, VAT) (WT C57BL/6 J mice; vs AGR-Scr or H19-Rgof): reduced fat weight
muscle weight (WT C57BL/6 J mice; vs AGR-Scr or H19-Rgof): increased muscle weight
force output, forelimb grip strength test (C57BL/6 J mice [1]; HFD-fed mice, n = 5): increased force output
forelimb grip strength, average force (C57BL/6 J mice [1]; WT male and female mice, n = 8): increased average force
running speed (C57BL/6 J mice [2]; [4]): elevated
total running time (C57BL/6 J mice [2]; [4]): elevated
running speed, treadmill exhaustion test (C57BL/6 J mice [2]; WT male and female mice, vs Scr-treated controls, n = 15): increased speed
maximum running speed, sprint interval treadmill (C57BL/6 J mice [2]; WT male and female mice, vs control, n = 10): elevated
serum triglyceride concentrations (C57BL/6 J mice [3]; HFD-fed male mice, n = 10, 7): reduced
IGF1 concentration (C57BL/6 J mice [3]; HFD-fed male mice, serum): unaltered
IGF2 concentration (C57BL/6 J mice [3]; HFD-fed male mice, serum): unaltered
total cholesterol (C57BL/6 J mice [3]; HFD-fed mice, n = 10, 9): reduced
leptin (C57BL/6 J mice [3]; HFD-fed mice, serum, n = 7, 7): reduced
total cholesterol (C57BL/6 J mice [3]; WT mice on chow, serum, vs AGR-Scr, n = 5): reduced
serum triglyceride concentrations (C57BL/6 J mice [3]; WT mice on chow, vs AGR-Scr, n = 7): reduced
